Laboratory results reported in US20210324379A1 (priority 2018, published 2021).

Legend:
HIV protease [1] = biological target: T1, HIV protease (Human immunodeficiency virus type 1 group M subtype B, UniProt P03366); format: cell-based; conditions: drugs screened at 10 μM; MAGeCK analysis; WT and KO cells
Protocol: (§1) Implementation of drug screening platform for proteases of viral or bacterial origin. Y axis represents drugs screened at 10 uM. X axis represents protein modeled and which cell line. WT=Natural expression of drug transporters. KO=No expression of PDR1, PDR3 and SNQ2.
(§2) All drugs were screened at a concentration of 10 μM. Barcoded cells expressing various protein drug targets were grown up individually on agar plates containing SC-ura-leu glucose. These strains were then inoculated into SC-ura-leu with glucose liquid culture media and after overnight growth were mixed together in equal amounts to generate the DNA barcoded library. The DNA barcoded library was then inoculated into SC-ura-leu with galactose liquid culture media with and without small molecule compounds.
(§3) Amplicons for NGS were generated through a two-step PCR protocol. Barcode sequences were amplified with Taq polymerase from genomic DNA preparations with primers anchored in constant regions of the 415-Kan-BC plasmid.

HIV protease [2] = biological target: T1, HIV protease; format: cell-based; conditions: for rescue in 3Δ cells compared to wild type cells: Δpdr1 Δpdr3 Δsnq2 (3Δ) vs WT yeast, SC-ura galactose plates with indicated amount of inhibitor (FIG. 9)
Protocol: FIG. 5: Spot assays of Δpdr1 Δpdr3 Δsnq2 yeast expressing pAG426-GAL empty vector or pAG426-GAL-HIV protease. Strains were grown to saturation in SC-ura glucose media and serial dilutions (10-fold) of yeast were plated on SC-ura glucose or SC-ura galactose plates with or without 5 μM lopinavir added.
Cells expressing pAG426-GAL-HIV vectors were transformed into either wild type (WT) or Δpdr1 Δpdr3 Δsnq2 (3Δ) yeast which show a reduced ability to export exogenous small molecules from the cell. Cells were then grown overnight in SC-ura glucose media and spotted at 10-fold serial dilution onto SC-ura galactose plates containing the indicated amount of HIV protease inhibitor (Lopinavir or Saquinavir).

EYFP = format: cell-based; conditions: drugs screened at 10 μM; MAGeCK analysis
Protocol: as §1, §2, §3

HIV protease [3] = biological target: T1, HIV protease; format: cell-based; conditions: control cells within ALS mixed pool screen
Excerpt: Ten disease models were probed as a mixed pool across a set of 22 small molecules. […] In these experiments cells containing HIV protease, DNAseI and mCherry served as controls.
Ten ALS models were probed as a mixed pool across a set of 22 small molecules. […] In these experiments, cells containing HIV protease and DNaseI served as positive controls, and cells containing mCherry served as negative controls.

[4] = tested on: protease and kinase expressing cells; assay: Mixed pool barcoded drug screen of protease and kinase expressing yeast (Example 4, FIG. 23, 25); format: cell-based; conditions: FIG. 25A/25C
Excerpt: FIG. 23A-FIG. 23C: Modulation of multidrug exporters enables the testing of multiple drug concentrations in parallel. FIG. 23A: Cells expressing wild type levels of multidrug exporters capture compound known to inhibit HIV protease activity. FIG. 23B: Similar to FIG. 23A, except cells are deficient in the expression of several multidrug exporters. A greater number of previously identified protease and kinase inhibitors are identified when using the drug exporter deficient background. FIG. 23C: The average degree of rescue, measured by the growth recovery of a specific yeast strain expressing a toxic protein, is higher in the knockout background as a result of higher intracellular drug concentrations. […] Furthermore, all of the hits shown are previously validated drug-target interactions. Each of the protein targets of interest expressed in the yeast cells is listed on the x-axis. […] FDR=false discovery rate, and is in relation to enrichment. […]
A single drug screen was performed on a mixed pool of yeast cells harboring various target proteins in order to identify compounds that interfere with each of the tested protein's function. […] In order to test multiple protein targets at a time, a unique DNA barcode was added to each yeast cell, such that when read using next generation sequencing, its abundance within a mixed pool can be quantified. […]

wimpy yeast = assay: Off-target toxicity detection with barcoded wimpy yeast (FIG. 25B, 25D); format: cell-based; conditions: mixed pool
Excerpt: FIG. 25A-FIG. 25D: Wimpy Yeast allow for detection of drugs causing off-target toxicity in barcoded yeast pools. […] FIG. 25C and FIG. 25D: For a subset of drugs with known specific rescue of various proteases and kinases, the present screen is able to capture these effects, and a corresponding decrease in growth of any of the tested wimpy yeast was not observed. For all figures each of the protein targets of interest expressed in the yeast cells or the genes knocked out of their genome is listed on the x-axis. […] FDR=false discovery rate, FDR for FIG. 25A and FIG. 25C are in relation to enrichment while FIG. 25B and FIG. 25D are in relation to depletion.
To detect drugs that have additional pleotropic effects, which may confound the interpretation by appearing to rescue specific models, but in fact was a result of off-target effects rather than on-target enzymatic inhibition, a series of “wimpy” yeast were developed that were engineered to be sensitive to a wide variety of off-target drug toxicities (i.e., perturbations to various biological pathways). These wimpy yeast strains are engineered by using genetic mutation to selectively render the cells hypersensitive to perturbations to various core cellular pathways. […]

OPTN = biological target: T2, OPTN (Homo sapiens, UniProt Q96CV9); assay: Manual spot assay of cultures plated in 5-fold dilutions (FIG. 12B); format: cell-based; conditions: consecutive 5-fold dilutions
T2 construct: expressed in transfected cells; host or cells: Saccharomyces cerevisiae, galactose-inducible expression
T2 sequence (Q96CV9 whole entry): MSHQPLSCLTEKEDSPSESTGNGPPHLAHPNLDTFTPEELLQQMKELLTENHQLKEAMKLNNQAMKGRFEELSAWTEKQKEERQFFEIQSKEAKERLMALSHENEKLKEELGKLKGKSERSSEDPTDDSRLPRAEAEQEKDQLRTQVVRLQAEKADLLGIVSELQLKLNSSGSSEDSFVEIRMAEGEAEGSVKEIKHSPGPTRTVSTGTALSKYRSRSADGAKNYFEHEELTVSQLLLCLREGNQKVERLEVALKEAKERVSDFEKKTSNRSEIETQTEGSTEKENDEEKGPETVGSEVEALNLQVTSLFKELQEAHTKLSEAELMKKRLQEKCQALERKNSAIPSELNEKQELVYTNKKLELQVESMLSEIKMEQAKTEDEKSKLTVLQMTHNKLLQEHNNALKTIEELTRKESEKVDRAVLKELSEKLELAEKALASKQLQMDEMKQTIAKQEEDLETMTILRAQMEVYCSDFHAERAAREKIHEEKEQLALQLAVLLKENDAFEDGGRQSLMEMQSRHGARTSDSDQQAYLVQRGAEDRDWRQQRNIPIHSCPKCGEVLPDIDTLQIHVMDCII
Protocol: (§4) Y axis represents drugs screened at 10 uM. X axis represents protein modeled and which cell line. WT=Natural expression of drug transporters. KO=No expression of multidrug transporters PDR1 and PDR3.
(§5) In addition, the presently disclosed screening methods were also applied towards an entirely orthogonal set of proteins. Aggregation-prone proteins are prevalent in numerous eukaryotic life forms and are implicated in a wide range of neurodegenerative diseases. […] In a drug screen of aggregation-prone proteins against 23 drugs, two significant interactions were identified (see FIG. 12A).

TAF15 = biological target: T3, TAF15 (Homo sapiens, UniProt Q92804); assay: as above; format: cell-based; conditions: consecutive 5-fold dilutions
T3 construct: expressed in transfected cells; host or cells: Saccharomyces cerevisiae, galactose-inducible expression
T3 sequence (Q92804 whole entry): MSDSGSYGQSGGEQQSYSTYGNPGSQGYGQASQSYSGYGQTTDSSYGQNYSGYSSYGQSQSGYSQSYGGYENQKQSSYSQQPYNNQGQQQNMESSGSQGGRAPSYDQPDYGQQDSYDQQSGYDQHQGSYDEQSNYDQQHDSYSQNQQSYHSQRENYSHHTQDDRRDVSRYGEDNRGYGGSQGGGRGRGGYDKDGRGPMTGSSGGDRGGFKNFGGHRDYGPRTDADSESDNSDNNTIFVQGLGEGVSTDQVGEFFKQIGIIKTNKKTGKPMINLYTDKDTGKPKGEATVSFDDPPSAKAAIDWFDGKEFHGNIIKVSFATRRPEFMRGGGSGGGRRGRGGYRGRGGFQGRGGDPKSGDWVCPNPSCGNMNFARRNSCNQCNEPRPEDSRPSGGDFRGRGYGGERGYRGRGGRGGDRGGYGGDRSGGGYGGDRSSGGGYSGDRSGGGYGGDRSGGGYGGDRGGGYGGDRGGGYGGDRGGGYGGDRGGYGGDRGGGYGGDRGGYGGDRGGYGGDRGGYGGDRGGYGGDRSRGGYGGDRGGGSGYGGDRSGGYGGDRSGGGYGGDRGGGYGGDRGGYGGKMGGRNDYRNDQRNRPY
Protocol: as §4, §5

ALS models = assay: Pooled DNA barcoded drug screen of ALS models against 22 small molecules (FIG. 14/18); format: cell-based, yeast; conditions: ten ALS models as mixed pool
Protocol: Y axis represents drugs screened at 10 uM. X axis represents protein modeled and which cell line. WT=Natural expression of drug transporters.

mcherry = assay: Manual spot assay of cultures plated in 5-fold dilutions (FIG. 12B); format: cell-based; conditions: consecutive 5-fold dilutions
Protocol: as §4

In the case of `COC(=O)N[C@H](C(=O)N[C@@H](Cc1ccccc1)[C@@H](O)CN(Cc1ccc(-c2ccccn2)cc1)NC(=O)[C@@H](NC(=O)OC)C(C)(C)C)C(C)(C)C` [atazanavir], the “barcode enrichment / protein-drug interaction for cells expressing HIV protease” value (HIV protease [1]) is reported as “protein-drug interactions”.
With `Cc1cccc(C)c1OCC(=O)N[C@@H](Cc1ccccc1)[C@@H](O)C[C@H](Cc1ccccc1)NC(=O)[C@H](C(C)C)N1CCCNC1=O` [Lopinavir] the “rescue in 3Δ cells compared to wild type cells” value (HIV protease [2]) was “significant increases in rescue” and the “mitigation of toxicity of yeast expressing HIV protease” value (HIV protease [2]; Δpdr1 Δpdr3 Δsnq2 yeast, SC-ura galactose plates, 5 μM lopinavir (FIG. 5)) was “toxicity can be mitigated”.
`CCCC(CCC)C(=O)O` [valproic acid] was tested, and the “non-specific drug interaction with control-expressing cells” value (EYFP) was “non-specific drug interactions”.
`CC(C)CN(C[C@@H](O)[C@H](Cc1ccccc1)NC(=O)O[C@H]1CO[C@H]2OCC[C@H]21)S(=O)(=O)c1ccc(N)cc1` [Darunavir] was tested, and the “rescue of growth for cells expressing HIV protease” value (HIV protease [3]) was “expected rescue of growth”.
`CC(=O)[C@]1(O)Cc2c(O)c3c(c(O)c2[C@@H](O[C@H]2C[C@H](N)[C@H](O)[C@H](C)O2)C1)C(=O)c1ccccc1C3=O` [idarubicin] was tested, and the “rescue of protease and kinase expressing cells (barcode enrichment)” value [4] was “significant rescue” and the “growth of the wimpy yeast models (barcode depletion)” value (wimpy yeast) was “decrease in the growth”.
With `CC(C)(C)NC(=O)[C@@H]1C[C@@H]2CCCC[C@@H]2CN1C[C@@H](O)[C@H](Cc1ccccc1)NC(=O)[C@H](CC(N)=O)NC(=O)c1ccc2ccccc2n1` [Saquinavir] the “rescue in 3Δ cells compared to wild type cells” value (HIV protease [2]) was “significant increases in rescue”.
For `Nc1nc2ccc(OC(F)(F)F)cc2s1` [Riluzole], the “growth of OPTN expressing cells in the presence of drug” value (OPTN) was “slight growth improvement”, the “growth of TAF15 expressing cells in the presence of drug” value (TAF15) was “decreased growth” and the “hit among >200 tested ALS gene-drug interactions” value (ALS models) was “potential hits”. For the same compound, the “growth of mcherry expressing cells in the presence of drug” value (mcherry) was “decreased growth”.
